Experimental findings from ChEMBL document CHEMBL4002646, “Antimalarial Properties of Simplified Kalihinol Analogues” (ACS Med Chem Lett, 2017) are described below.

The subject of assay [1] is Plasmodium falciparum. In words: Antimalarial activity against chloroquine-resistant Plasmodium falciparum Dd2 infected in human O+ erythrocytes after 72 hrs by SYBR green fluorescence-based method. It is filed as functional, cell-based.
Assay [2] relates to Plasmodium falciparum. Kind of assay: Antimalarial activity against Plasmodium falciparum 3D7 infected in human O+ erythrocytes after 72 hrs by SYBR green fluorescence-based method. It is filed as functional, cell-based.
For assay [3], the system named is Plasmodium falciparum. In words: Antimalarial activity against chloroquine-resistant Plasmodium falciparum FCR-3 ATCC 30932 infected in human RBC after 72 hrs by Geimsa staining based microscopic method. It is filed as functional. As to conditions: FCR-3/Gambia ATCC 30932, 72 h.
The test system of assay [4] is Plasmodium falciparum. In words: Antimalarial activity against chloroquine-resistant Plasmodium falciparum W2 infected in human RBC after 72 hrs. It is filed as functional. As to conditions: W2, 72 h.
[5] abbreviates: Plasmodium falciparum, Dd2, 72 h.
Where [6] appears, read: Plasmodium falciparum, 3D7, 72 h.

The term IC50 denotes the concentration that gives 50% inhibition. For `CC(C)(Cl)[C@@H]1CC[C@](C)([C@H]2CC[C@](C)(C#N)[C@H]3CC[C@@](C)(O)[C@H](C#N)[C@@H]32)O1`, the figures for the concentration for half-maximal inhibition (IC50) with Plasmodium falciparum [1] (setting [5]) and in the assay with Plasmodium falciparum [2] (setting [6]) were 4.6 nM and 8.4 nM, respectively.
Taken in the same sequence, the figures for `CC(C)(O)C[C@@H]1[C@@]2(C)CCCC(C)(C)[C@@H]2CC[C@]1(C)C#N` were 416 nM and 244 nM.
Consider `CC(C)[C@H]1CC[C@@](C)(C#N)[C@H]2CC[C@@](C)(C#N)[C@H](O)[C@H]12`, for which the values for the half-maximal inhibitory concentration (IC50) in the assay with Plasmodium falciparum [1] (setting [5]) and with Plasmodium falciparum [2] (setting [6]) were 958 nM and 1150 nM, respectively.
Take `CC1=C[C@H]2[C@H](CC1)[C@@](C)(C#N)CC[C@@H]2[C@@]1(C)CC[C@](C#N)(C(C)C)O1`: the IC50 is 123 nM in the assay with Plasmodium falciparum [1] (setting [5]) and 175 nM in the assay on Plasmodium falciparum [2] (setting [6]).
`CC1(C)O[C@@](C)([C@H]2CC[C@](C)(C#N)[C@H]3CC[C@@](C)(O)[C@H](C#N)[C@@H]32)CC[C@@H]1Cl`: the IC50 in the assay with Plasmodium falciparum [3] stood at 1.2 nM.
Consider `CC(C)[C@H]1CC[C@@](C)(C#N)[C@H]2CC[C@@](C)(O)[C@H](C#N)[C@H]12`, for which the half-inhibitory concentration (IC50) in the assay on Plasmodium falciparum [1] (setting [5]) was determined as 31 nM; in the assay on Plasmodium falciparum [2] (setting [6]), 2.9 nM.
As to `CC(C)(C#N)C[C@@H]1[C@@]2(C)CCCC(C)(C)[C@@H]2CC[C@]1(C)C#N`, the IC50 in the assay with Plasmodium falciparum [1] (setting [5]) was found to be 1.6 nM; in the assay with Plasmodium falciparum [2] (setting [6]), 1.9 nM.
With `CC(C)[C@H]1CC[C@](C)(C#N)[C@H]2CC[C@@](C)(C#N)[C@H](O)[C@H]12`, the IC50 in the assay on Plasmodium falciparum [1] came out at 17 nM; in the assay with Plasmodium falciparum [2] (setting [6]), 15 nM.
Regarding `CC(C)[C@H]1CC[C@](C)(C#N)[C@H]2CC[C@@](C)(O)[C@H](C#N)[C@H]12`, the IC50 came to 16 nM with Plasmodium falciparum [1] (setting [5]) and 12 nM in the assay with Plasmodium falciparum [2] (setting [6]).
As to `CC1=C[C@@]2(O)[C@@H](CC1)[C@@](C)(C#N)CC[C@@H]2[C@@]1(C)CC[C@@H](C(C)(C)C#N)O1`, in the assay on Plasmodium falciparum [3], the midpoint of inhibition, the IC50, lay at 80 nM.
With `C[C@@H]1C[C@@H]2C[C@H](C)[C@H]3CC[C@](C)(C#N)[C@H]4CC[C@@H]([C@@H]2[C@H]34)[C@]1(C)C#N`, the figures for the 50% inhibitory concentration (IC50) in the assay with Plasmodium falciparum [1] (setting [5]) and with Plasmodium falciparum [4] were 1.6 nM and 13 nM, respectively.
Regarding `CC1=C[C@@H]2[C@@H](C(C)C)CC[C@@](C)(C#N)[C@@H]2CC1` (racemic), the IC50 in the assay with Plasmodium falciparum [1] (setting [5]) amounted to 45 nM; with Plasmodium falciparum [2] (setting [6]), 180 nM.
Taken in the same sequence, the figures for `CC1=C[C@@H]2[C@@H](C(C)C)CC[C@](C)(C#N)[C@H]2CC1` (racemic) were 247 nM and 705 nM.
For `CC(C)[C@H]1CC[C@](C)(C#N)[C@H]2CC[C@@](C)(C#N)[C@H](O)[C@H]12` (racemic), the IC50 in the assay on Plasmodium falciparum [1] turned out to be 46 nM; in the assay with Plasmodium falciparum [2], 27 nM.
Turning to `C[C@]1(C#N)CC[C@H](CCO)[C@H]2[C@@H](C#N)[C@](C)(O)CC[C@@H]21` (racemic), the concentration for half-maximal inhibition (IC50) in the assay on Plasmodium falciparum [1] (setting [5]) worked out at 205 nM; in the assay on Plasmodium falciparum [2] (setting [6]), 302 nM.
